One experiment addresses T1, AXL (Homo sapiens, UniProt P30530).
T1 sequence (P30530 26-894): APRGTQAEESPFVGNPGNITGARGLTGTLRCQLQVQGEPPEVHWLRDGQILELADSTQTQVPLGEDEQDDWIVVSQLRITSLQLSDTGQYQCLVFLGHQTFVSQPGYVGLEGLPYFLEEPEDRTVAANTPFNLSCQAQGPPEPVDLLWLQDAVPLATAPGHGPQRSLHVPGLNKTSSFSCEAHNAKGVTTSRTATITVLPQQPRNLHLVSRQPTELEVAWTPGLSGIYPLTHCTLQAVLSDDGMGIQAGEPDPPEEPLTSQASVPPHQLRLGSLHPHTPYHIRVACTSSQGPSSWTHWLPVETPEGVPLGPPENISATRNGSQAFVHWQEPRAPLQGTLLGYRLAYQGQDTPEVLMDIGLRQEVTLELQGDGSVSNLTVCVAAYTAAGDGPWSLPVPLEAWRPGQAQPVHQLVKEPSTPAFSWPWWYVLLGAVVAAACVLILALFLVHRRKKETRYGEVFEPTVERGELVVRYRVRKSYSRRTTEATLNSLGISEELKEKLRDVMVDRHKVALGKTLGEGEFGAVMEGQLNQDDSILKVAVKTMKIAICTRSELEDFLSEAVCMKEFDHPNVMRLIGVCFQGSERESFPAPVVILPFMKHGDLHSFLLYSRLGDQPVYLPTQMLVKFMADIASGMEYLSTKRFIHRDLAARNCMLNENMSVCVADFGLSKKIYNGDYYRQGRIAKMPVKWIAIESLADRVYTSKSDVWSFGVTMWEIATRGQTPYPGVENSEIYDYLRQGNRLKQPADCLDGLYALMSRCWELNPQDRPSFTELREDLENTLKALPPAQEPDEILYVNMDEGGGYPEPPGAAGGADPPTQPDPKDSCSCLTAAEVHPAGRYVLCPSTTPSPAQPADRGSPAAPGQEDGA
Nature of the experiment: TR-FRET kinase activity assay, AXL. The conditions noted are these: ATP at Km, 60 minutes. Type of experiment: biochemical. The gist of the method: (§1)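 Steps: compound, enzyme and labeled peptide combined at RT (50 mM HEPES pH 7.5, 10 mM MgCl2, 1 mM DTT); ATP added at Km; 60 min reaction; EDTA quench; Eu-antibody development 30 min in darkness; TR-FRET measured and IC50 fitted.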

In the next experiment the target is T2, FLT3 (Homo sapiens, UniProt P36888).
T2 sequence (P36888 27-993): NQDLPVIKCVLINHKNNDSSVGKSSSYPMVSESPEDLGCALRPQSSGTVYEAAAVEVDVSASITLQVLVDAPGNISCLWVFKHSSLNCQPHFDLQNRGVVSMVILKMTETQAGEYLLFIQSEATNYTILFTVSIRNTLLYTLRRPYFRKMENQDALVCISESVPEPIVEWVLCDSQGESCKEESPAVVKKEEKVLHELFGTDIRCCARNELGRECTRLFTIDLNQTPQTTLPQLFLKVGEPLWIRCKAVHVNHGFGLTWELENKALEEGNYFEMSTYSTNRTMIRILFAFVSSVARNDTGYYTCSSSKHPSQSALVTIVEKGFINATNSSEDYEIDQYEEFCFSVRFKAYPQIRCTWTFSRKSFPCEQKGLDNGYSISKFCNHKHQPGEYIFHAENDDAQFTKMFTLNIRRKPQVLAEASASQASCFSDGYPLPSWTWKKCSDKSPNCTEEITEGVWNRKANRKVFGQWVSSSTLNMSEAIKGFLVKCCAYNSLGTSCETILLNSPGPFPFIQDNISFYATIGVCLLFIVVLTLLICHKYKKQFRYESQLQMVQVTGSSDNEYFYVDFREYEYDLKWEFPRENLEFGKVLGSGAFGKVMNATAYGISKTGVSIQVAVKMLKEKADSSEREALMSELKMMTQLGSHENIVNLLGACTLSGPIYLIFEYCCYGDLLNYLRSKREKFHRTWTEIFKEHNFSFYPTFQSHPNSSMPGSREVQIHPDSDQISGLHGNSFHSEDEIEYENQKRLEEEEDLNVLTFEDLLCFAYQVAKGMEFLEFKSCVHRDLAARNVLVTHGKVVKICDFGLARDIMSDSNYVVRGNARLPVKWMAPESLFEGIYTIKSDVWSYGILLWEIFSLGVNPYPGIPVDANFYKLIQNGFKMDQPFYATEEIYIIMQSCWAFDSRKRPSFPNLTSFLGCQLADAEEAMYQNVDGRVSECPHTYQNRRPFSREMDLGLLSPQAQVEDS
As to the kind of experiment: TR-FRET kinase activity assay, FLT3. Type of experiment: biochemical. The conditions noted are these: ATP at Km, 60 minutes. The gist of the method: as §1

pIC50: −log10 of the molar value.

Consider `CC[C@H](C)Nc1ncc2c(=O)n(CC34CCC(N)(CC3)CC4)cc([C@H]3CC[C@H](O)CC3)c2n1` [Compound 251], for which the pIC50 on AXL is 6.00 to 7.00; at FLT3, 5.00 to 6.00.

Turning to `CCOc1ncc(CC2CCN(C)CC2)c2nc(N[C@@H](C)CC)ncc12` [Compound 253], the pIC50 against AXL and against FLT3 was 5.00 to 6.00 in each case.

Consider `CCOc1ncc(CC2CCN(C(=O)OC(C)(C)C)CC2)c2nc(N[C@@H](C)CC)ncc12` [Compound 254], for which the pIC50 against AXL and at FLT3 was 5.00 to 6.00 throughout.

As to `CC[C@H](C)Nc1ncc2c(C)ncc([C@H]3CC[C@H](O)CC3)c2n1` [Compound 255], the pIC50 against AXL is at least 7.00; against FLT3 it was 5.00 to 6.00.

On to `CC[C@H](C)Nc1ncc2c(OCC34CCC(O)(CC3)CC4)ncc([C@H]3CC[C@H](O)CC3)c2n1` [Compound 256], for which the pIC50 against AXL and on FLT3 was 5.00 to 6.00 in each case.

For `CC[C@H](C)Nc1ncc2c(=O)n(CC34CCC(O)(CC3)CC4)cc([C@H]3CC[C@H](O)CC3)c2n1` [Compound 257], the pIC50 against AXL was at least 7.00; on FLT3, 5.00 to 6.00.

Regarding `COC[C@H](C)Nc1ncc2c(OC3CC(C)(C)N(C)C(C)(C)C3)ncc([C@H]3CC[C@H](O)CC3)c2n1` [Compound 259], the pIC50 against AXL is at least 7.00; at FLT3, 5.00 to 6.00.

In the case of `COC[C@H](C)Nc1ncc2c(O[C@H]3CC[C@H](O)CC3)ncc([C@H]3CC[C@H](O)CC3)c2n1` [Compound 260], the results for the pIC50 on AXL and on FLT3 were 6.00 to 7.00 and 5.00 to 6.00, respectively.

In the case of `CC[C@H](C)Nc1ncc2c(O[C@H]3CC[C@H](C(C)(C)O)CC3)ncc([C@H]3CC[C@H](O)CC3)c2n1` [Compound 261], the negative-log IC50 (pIC50) at AXL and against FLT3 was 6.00 to 7.00 in each case.

On to `O[C@H]1CC[C@H](c2cnc(OC3CCNCC3)c3cnc(Nc4ccccc4F)nc32)CC1` [Compound 262], for which the pIC50 on AXL and at FLT3 was 6.00 to 7.00 in each case.

On to `CC[C@H](C)Nc1ncc2c(=O)n(C[C@@H]3COCCN3C)cc([C@H]3CC[C@H](O)CC3)c2n1` [Compound 263], for which the results for the negative-log IC50 (pIC50) on AXL and on FLT3 were 6.00 to 7.00 and 5.00 to 6.00, respectively.

For the compound `CC[C@H](C)Nc1ncc2c(=O)n(CC34CCC(N(C)C)(CC3)CC4)cc([C@H]3CC[C@H](O)CC3)c2n1` [Compound 264], the pIC50 was at least 7.00 on AXL and 5.00 to 6.00 against FLT3.

Take `CC[C@H](C)Nc1ncc2c(=O)n(C[C@H]3COCCN3C)cc([C@H]3CC[C@H](O)CC3)c2n1` [Compound 265]: the pIC50 against AXL and against FLT3 was 5.00 to 6.00 in each case.

As for `CC[C@H](C)Nc1ncc2c(=O)n([C@H]3CC[C@H](N(C)C)C3)cc([C@H]3CC[C@H](O)CC3)c2n1` [Compound 266], the pIC50 is 6.00 to 7.00 against AXL and 5.00 to 6.00 against FLT3.

For `CC[C@H](C)Nc1ncc2c(O[C@H]3CC[C@H](N(C)C)C3)ncc([C@H]3CC[C@H](O)CC3)c2n1` [Compound 267], the pIC50 against AXL is at least 7.00; against FLT3 it was 6.00 to 7.00.

`CC(C)(C)Nc1ncc2c(OC3CCNCC3)ncc([C@H]3CC[C@H](O)CC3)c2n1` [Compound 268]: the pIC50 against AXL was 6.00 to 7.00; against FLT3 it was 5.00 to 6.00.

Consider `O[C@H]1CC[C@H](c2cnc(OC3CCNCC3)c3cnc(Nc4ccc(F)cc4)nc32)CC1` [Compound 269], for which the negative logarithm of the IC50 (pIC50) on AXL and against FLT3 was at least 7.00 each time.

For `O[C@H]1CC[C@H](c2cnc(OC3CCNCC3)c3cnc(Nc4cccc(F)c4)nc32)CC1` [Compound 270], the pIC50 against AXL and on FLT3 was at least 7.00 each time.

Take `CC[C@H](C)Nc1ncc2c(=O)n(-c3ccc(N)cc3)cc([C@H]3CC[C@H](O)CC3)c2n1` [Compound 271]: the pIC50 against AXL and at FLT3 was 5.00 to 6.00 in each case.

Turning to `COC(=O)c1ccc(Nc2ncc3c(OC4CCNCC4)ncc([C@H]4CC[C@H](O)CC4)c3n2)cc1` [Compound 272], the pIC50 was at least 7.00 against AXL and 6.00 to 7.00 against FLT3.

For the compound `CCOc1ncc([C@H]2CC[C@H](O)CC2)c2nc(N[C@@H](C)COC)ncc12` [Compound 273], the pIC50 against AXL was 6.00 to 7.00; on FLT3, 5.00 to 6.00.

Regarding `CC(C)Nc1ncc2c(OC3CCOCC3)ncc(-c3cccc(CC#N)c3)c2n1` [Compound 274], the pIC50 against AXL was 6.00 to 7.00; against FLT3, 5.00 to 6.00.

In the case of `CC[C@H](C)Nc1ncc2c(OC3C[C@@H](C)O[C@@H](C)C3)ncc([C@H]3CC[C@H](O)CC3)c2n1` (some centres unmarked) [Compound 275], the pIC50 on AXL and against FLT3 was 5.00 to 6.00 throughout.

`CC(C)Nc1ncc2c(OC3CCOCC3)ncc(-c3cccc(CC(=O)O)c3)c2n1` [Compound 276]: the pIC50 against AXL and against FLT3 was 5.00 to 6.00 each time.

Turning to `O[C@H]1CC[C@H](c2cnc(OC3CCOCC3)c3cnc(N[C@H]4CCNC4)nc32)CC1` [Compound 277], the pIC50 on AXL and at FLT3 was 5.00 to 6.00 throughout.

These data come from patent US20200291018A1, “TAM KINASE INHIBITORS” (SYROS PHARMACEUTICALS, INC., priority 2017, published 2020).
